Data: ChEMBL document CHEMBL3813616, “Discovery of novel 7-azaindoles as PDK1 inhibitors” (Bioorg Med Chem Lett, 2016)

Key:
[1] = molecular target: Insulin receptor-related protein (Homo sapiens) (UniProt P14616); assay: Inhibition of human IRR (944 to 1236 residues) assessed as enzyme activity at 1 uM using 33P ATP by radioactive filter binding assay; parameters: scale not given: the % may be the effect or the level left
[2] = molecular target: Ribosomal protein S6 kinase alpha-3 (Homo sapiens) (UniProt P51812); assay: Inhibition of human MAPKAPK1beta assessed as enzyme activity at 1 uM using 33P ATP by radioactive filter binding assay; parameters: scale not given: the % may be the effect or the level left
[3] = molecular target: Serine/threonine-protein kinase PAK 5 (Homo sapiens) (UniProt Q9P286); assay: Inhibition of human PAK5 (2 to 719 residues) assessed as enzyme activity at 1 uM using 33P ATP by radioactive filter binding assay; parameters: scale not given: the % may be the effect or the level left
[4] = molecular target: T1, MAP kinase-activated protein kinase 5 (Homo sapiens) (UniProt Q8IW41); assay: Inhibition of human PRAK (1 to 471 residues) assessed as enzyme activity at 1 uM using 33P ATP by radioactive filter binding assay; parameters: scale not given: the % may be the effect or the level left
T1 sequence (whole entry): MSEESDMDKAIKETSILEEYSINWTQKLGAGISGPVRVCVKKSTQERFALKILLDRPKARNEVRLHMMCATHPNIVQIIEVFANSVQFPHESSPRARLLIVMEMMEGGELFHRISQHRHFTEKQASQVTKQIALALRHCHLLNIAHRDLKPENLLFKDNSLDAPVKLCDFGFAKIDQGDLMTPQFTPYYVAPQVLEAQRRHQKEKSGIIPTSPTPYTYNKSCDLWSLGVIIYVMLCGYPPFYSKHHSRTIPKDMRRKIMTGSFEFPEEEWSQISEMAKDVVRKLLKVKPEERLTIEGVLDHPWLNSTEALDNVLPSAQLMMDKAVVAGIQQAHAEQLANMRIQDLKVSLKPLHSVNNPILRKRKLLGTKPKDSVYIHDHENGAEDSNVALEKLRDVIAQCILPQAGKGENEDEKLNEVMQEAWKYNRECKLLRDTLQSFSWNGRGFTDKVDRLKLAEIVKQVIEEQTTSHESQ

[5] = molecular target: Rho-associated protein kinase 2 (Rattus norvegicus) (UniProt Q62868); assay: Inhibition of rat ROCK2 (2 to 543 residues) assessed as enzyme activity at 1 uM using 33P ATP by radioactive filter binding assay; parameters: scale not given: the % may be the effect or the level left
[6] = molecular target: Myosin light chain kinase, smooth muscle (Homo sapiens) (UniProt Q15746); assay: Inhibition of human smMLCK (475 to 838 residues) assessed as enzyme activity at 1 uM using 33P ATP by radioactive filter binding assay; parameters: scale not given: the % may be the effect or the level left
[7] = molecular target: T2, Phosphatidylinositol 4,5-bisphosphate 3-kinase catalytic subunit delta isoform (Homo sapiens, UniProt O00329); assay: Inhibition of PI3K delta (unknown origin)
T2 sequence (O00329 whole entry): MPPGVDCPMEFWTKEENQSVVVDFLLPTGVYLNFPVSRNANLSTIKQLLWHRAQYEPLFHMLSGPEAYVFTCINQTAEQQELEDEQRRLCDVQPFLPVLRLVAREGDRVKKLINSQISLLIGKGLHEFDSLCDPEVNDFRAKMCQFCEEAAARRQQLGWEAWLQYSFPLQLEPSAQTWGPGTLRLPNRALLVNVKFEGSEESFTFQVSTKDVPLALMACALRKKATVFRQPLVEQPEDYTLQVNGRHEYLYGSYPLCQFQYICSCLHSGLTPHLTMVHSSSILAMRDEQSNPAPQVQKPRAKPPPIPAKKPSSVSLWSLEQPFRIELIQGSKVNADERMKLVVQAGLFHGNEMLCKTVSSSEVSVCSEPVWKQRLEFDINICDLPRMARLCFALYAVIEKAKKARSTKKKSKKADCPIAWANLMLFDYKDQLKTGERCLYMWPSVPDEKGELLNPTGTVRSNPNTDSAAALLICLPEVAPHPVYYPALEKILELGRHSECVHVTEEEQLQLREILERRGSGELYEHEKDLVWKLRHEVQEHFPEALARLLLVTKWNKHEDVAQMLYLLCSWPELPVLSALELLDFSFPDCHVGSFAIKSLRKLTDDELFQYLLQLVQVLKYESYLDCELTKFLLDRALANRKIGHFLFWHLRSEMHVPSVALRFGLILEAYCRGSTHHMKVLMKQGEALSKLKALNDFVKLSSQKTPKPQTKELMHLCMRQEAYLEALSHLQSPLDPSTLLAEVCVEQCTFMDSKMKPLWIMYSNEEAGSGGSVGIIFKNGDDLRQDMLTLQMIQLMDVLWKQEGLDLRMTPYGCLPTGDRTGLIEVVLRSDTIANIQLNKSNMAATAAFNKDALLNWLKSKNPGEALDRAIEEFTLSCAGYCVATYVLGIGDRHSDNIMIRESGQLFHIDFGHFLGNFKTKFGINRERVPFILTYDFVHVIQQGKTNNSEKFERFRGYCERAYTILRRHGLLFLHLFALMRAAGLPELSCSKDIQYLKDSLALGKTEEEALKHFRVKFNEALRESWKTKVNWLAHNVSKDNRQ

[8] = molecular target: Calcium/calmodulin-dependent protein kinase kinase 2 (Homo sapiens) (UniProt Q96RR4); assay: Inhibition of human CAMKKb (1 to 541 residues) assessed as enzyme activity at 1 uM using 33P ATP by radioactive filter binding assay; parameters: scale not given: the % may be the effect or the level left
[9] = molecular target: Casein kinase II (Homo sapiens) (UniProt P67870+P68400+P19784); assay: Inhibition of human CK2 assessed as enzyme activity at 1 uM using 33P ATP by radioactive filter binding assay; type: protein-complex assay; parameters: scale not given: the % may be the effect or the level left
[10] = molecular target: Homeodomain-interacting protein kinase 2 (Homo sapiens) (UniProt Q9H2X6); assay: Inhibition of human HIPK2 (165 to 564 residues) assessed as enzyme activity at 1 uM using 33P ATP by radioactive filter binding assay; parameters: scale not given: the % may be the effect or the level left
[11] = molecular target: Insulin-like growth factor 1 receptor (Homo sapiens) (UniProt P08069); assay: Inhibition of human IGF1R (954 to 1367 residues) assessed as enzyme activity at 1 uM using 33P ATP by radioactive filter binding assay; parameters: scale not given: the % may be the effect or the level left
[12] = molecular target: Tyrosine-protein kinase BTK (Homo sapiens) (UniProt Q06187); assay: Inhibition of human BTK (2 to 659 residues) assessed as enzyme activity at 1 uM using 33P ATP by radioactive filter binding assay; parameters: scale not given: the % may be the effect or the level left
Chain of Tyrosine-protein kinase BTK (Homo sapiens) (Q06187 whole entry, the tested form may be a part): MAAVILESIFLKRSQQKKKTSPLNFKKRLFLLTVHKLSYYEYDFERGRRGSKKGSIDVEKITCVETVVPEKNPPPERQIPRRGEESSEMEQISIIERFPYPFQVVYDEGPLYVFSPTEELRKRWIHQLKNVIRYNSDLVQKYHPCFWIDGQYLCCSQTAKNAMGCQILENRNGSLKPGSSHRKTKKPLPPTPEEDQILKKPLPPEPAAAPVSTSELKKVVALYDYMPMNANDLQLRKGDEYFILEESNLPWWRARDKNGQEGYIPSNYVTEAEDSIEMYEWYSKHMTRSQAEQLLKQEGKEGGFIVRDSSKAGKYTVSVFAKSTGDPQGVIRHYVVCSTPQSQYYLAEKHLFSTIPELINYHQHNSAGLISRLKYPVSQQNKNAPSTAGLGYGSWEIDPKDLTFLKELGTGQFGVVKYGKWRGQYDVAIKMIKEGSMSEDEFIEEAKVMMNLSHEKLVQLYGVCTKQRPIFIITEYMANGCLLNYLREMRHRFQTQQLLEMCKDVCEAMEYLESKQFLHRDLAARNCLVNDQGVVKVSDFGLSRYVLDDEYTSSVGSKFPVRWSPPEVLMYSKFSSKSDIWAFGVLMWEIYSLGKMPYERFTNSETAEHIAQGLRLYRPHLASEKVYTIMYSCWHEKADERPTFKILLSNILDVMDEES

Chain of Homeodomain-interacting protein kinase 2 (Homo sapiens) (Q9H2X6 whole entry, looked up, the tested form may be a part): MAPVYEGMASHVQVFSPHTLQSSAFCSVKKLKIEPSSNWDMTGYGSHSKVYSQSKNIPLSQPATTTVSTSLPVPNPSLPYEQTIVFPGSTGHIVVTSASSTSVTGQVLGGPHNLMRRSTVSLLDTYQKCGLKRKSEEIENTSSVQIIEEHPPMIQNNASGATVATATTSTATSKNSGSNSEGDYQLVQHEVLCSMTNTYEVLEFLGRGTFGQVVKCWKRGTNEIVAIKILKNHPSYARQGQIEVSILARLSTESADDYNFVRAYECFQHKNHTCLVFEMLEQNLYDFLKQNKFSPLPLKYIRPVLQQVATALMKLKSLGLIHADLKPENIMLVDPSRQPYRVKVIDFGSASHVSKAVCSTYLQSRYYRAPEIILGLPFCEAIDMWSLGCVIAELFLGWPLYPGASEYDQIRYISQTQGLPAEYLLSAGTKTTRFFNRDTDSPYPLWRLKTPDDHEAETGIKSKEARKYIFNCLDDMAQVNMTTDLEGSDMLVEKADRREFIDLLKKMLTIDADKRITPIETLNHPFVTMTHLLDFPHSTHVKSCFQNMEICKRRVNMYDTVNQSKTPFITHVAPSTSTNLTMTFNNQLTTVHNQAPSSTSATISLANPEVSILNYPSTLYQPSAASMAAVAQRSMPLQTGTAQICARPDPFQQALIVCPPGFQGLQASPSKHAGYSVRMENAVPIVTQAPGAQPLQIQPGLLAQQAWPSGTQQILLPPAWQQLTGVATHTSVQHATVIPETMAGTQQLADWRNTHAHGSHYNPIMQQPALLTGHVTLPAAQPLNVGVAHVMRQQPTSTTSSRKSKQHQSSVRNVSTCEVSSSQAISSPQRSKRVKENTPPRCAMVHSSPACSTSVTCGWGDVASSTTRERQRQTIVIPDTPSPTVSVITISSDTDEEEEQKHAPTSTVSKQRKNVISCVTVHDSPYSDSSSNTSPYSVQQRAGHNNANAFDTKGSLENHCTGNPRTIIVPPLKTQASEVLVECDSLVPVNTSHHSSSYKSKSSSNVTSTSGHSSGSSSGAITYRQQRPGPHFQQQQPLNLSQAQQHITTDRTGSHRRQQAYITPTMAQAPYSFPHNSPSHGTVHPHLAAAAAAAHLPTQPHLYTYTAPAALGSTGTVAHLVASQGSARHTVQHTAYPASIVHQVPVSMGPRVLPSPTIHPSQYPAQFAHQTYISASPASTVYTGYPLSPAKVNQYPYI
Chain of Ribosomal protein S6 kinase alpha-3 (Homo sapiens) (P51812 whole entry, the tested form may be a part): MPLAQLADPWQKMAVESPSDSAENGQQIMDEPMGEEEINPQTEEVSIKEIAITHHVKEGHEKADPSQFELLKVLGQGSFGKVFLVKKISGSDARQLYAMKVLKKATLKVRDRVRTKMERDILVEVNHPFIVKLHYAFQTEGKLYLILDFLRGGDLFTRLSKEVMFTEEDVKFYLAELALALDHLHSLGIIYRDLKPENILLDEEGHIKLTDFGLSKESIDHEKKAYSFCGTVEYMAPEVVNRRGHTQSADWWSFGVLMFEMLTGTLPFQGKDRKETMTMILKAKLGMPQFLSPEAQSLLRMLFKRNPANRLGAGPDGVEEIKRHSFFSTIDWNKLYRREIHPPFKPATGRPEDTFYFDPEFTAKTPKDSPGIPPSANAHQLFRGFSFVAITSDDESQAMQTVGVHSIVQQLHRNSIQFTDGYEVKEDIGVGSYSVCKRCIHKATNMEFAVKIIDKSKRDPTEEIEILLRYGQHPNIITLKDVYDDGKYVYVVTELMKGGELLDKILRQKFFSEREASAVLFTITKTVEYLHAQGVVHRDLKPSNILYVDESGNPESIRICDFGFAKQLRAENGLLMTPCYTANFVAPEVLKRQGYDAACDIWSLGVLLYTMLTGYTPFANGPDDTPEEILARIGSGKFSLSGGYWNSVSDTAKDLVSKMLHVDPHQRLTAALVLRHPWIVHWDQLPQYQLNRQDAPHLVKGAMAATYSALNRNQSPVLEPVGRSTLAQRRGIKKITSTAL
Chain of Insulin-like growth factor 1 receptor (Homo sapiens) (P08069 31-736 limits assumed): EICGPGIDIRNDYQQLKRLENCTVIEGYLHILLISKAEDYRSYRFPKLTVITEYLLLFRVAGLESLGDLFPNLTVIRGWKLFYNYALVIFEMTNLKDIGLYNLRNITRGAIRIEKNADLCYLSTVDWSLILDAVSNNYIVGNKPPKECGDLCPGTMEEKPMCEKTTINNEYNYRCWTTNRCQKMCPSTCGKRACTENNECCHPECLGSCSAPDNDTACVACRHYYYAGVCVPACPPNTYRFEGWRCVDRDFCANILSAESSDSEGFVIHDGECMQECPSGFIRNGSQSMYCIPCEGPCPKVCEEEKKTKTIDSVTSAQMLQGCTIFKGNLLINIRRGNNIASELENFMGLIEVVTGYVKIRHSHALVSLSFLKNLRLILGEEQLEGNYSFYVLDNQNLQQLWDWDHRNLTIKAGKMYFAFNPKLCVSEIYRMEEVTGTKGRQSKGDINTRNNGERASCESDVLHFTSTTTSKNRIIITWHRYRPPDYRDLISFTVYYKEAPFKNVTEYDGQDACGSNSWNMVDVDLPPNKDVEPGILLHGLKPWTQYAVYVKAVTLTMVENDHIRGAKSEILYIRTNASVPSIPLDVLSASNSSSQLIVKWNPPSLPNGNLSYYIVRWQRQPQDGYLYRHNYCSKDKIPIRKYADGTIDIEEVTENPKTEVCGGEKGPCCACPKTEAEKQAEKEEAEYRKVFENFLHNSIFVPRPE
Chain of Insulin-like growth factor 1 receptor (Homo sapiens) (P08069 741-1367 limits assumed): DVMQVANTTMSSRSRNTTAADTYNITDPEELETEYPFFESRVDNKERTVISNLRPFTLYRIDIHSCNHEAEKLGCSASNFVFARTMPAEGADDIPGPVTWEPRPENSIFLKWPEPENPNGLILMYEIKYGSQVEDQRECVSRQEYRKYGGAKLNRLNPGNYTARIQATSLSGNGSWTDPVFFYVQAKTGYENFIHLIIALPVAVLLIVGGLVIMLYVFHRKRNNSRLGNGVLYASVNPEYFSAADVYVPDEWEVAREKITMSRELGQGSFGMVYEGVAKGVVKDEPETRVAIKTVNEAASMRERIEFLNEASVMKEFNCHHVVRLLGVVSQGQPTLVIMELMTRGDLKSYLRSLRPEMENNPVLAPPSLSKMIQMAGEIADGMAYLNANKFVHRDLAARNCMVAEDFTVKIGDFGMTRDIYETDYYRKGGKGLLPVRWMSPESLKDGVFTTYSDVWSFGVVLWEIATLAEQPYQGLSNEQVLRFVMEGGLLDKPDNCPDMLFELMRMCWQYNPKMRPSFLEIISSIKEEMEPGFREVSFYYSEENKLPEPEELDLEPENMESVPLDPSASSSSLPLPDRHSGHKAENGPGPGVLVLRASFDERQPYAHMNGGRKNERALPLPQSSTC
Chain of Serine/threonine-protein kinase PAK 5 (Homo sapiens) (Q9P286 whole entry, looked up, the tested form may be a part): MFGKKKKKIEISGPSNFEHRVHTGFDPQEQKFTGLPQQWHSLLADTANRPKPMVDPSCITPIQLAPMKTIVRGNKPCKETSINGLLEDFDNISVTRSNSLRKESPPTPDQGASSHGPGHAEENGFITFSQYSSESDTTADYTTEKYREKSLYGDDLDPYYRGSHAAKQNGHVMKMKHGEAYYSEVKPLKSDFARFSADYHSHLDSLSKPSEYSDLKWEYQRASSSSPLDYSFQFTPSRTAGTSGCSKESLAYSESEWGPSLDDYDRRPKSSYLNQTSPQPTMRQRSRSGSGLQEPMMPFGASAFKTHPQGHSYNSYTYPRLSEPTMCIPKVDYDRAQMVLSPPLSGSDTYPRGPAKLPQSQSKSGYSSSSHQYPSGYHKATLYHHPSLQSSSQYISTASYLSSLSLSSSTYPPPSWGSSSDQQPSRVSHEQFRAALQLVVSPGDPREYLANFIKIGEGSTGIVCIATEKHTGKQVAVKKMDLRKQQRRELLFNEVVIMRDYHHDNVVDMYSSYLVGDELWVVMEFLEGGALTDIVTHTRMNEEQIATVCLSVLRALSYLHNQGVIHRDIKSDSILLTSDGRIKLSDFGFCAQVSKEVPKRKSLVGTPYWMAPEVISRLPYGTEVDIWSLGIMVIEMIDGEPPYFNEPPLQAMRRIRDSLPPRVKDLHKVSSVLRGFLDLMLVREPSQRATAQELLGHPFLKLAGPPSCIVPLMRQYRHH

Row | Activity [1] | Activity [2] | Activity [3] | Activity [4] | Activity [5] | Activity [6] | IC50 [7] | Activity [8] | Activity [9] | Activity [10] | Activity [11] | Activity [12] | Compound
1 | -82% | -17% | 6% | 2% | -93% | -10% | > 10 µM | -2% | 14% | -67% |  |  | CCCCc1cc(-c2c[nH]c3ncccc23)nc(N)n1
2 | -86% | -92% | -38% | -10% | -80% | -72% | 4 µM | -86% | 0% | -92% | -27% | -28% | CCCCc1cc(-c2c[nH]c3ncc(-c4cnn(C5CCNCC5)c4)cc23)nc(N)n1
3 | -42% | -71% | 200% | 4% | -65% | -40% |  | -58% | -10% | -99% | -34% | -31% | CCc1cc(-c2c[nH]c3ncc(-c4cnn(C5CCNCC5)c4)cc23)nc(N)n1
4 | -9% | -46% | -30% | -17% | -97% | -35% | > 10 µM | -31% | -22% | -79% | -2% | -13% | Nc1nccc(-c2c[nH]c3ncccc23)n1 [MERIOLIN 1]
